Laboratory results reported in patent US10052296B2, “Formulations for treating pain” (priority 2016, dated 2018).

Key:
[1] = Stability of gabapentin in presence of different stabilizers and solvents; assay type: physicochemical; details: GBP 9 mg/mL in acetate buffer
Experimental: GBP containing formulations were prepared by dissolving GBP to a concentration of 9 mg/mL in acetate buffer. A first set of samples were tested for assay and impurities after the initial preparation of formulation. Another set of samples were steam sterilized at 121° C. for 15 min and were tested for assay and impurity levels.

[2] = Pharmacokinetics in rats after 15 min IV infusion; details: for AUC / Cmax: male, rat, plasma, iv
Experimental: Formulation compositions were prepared by dissolving GBP and/or APAP as indicated in Table 5 and the pH was adjusted to 5.5 using HCl or NaOH.
Blood samples were collected over a 24 h period at which time the rats were exsanguinated and blood collected for Clinical Pathology (Chemistry, Hematology and Coagulation) evaluation. Finally, all animals were necropsied (all exterior and interior cavities and organs were examined) and the site of infusion in the jugular vein, lung, liver and kidney underwent histopathologic evaluation.

[3] = test system: mouse whole blood (male), red blood cells; experiment: In vitro hemolysis test, mouse blood; details: 15 min at 37° C.; for % Hemolysis: Mouse Blood; for interpretation of hemolysis to Red Blood Cells: mouse whole unclotted blood, concentrations tested
Experimental: (§1) APAP and GBP alone or in combination were evaluated in the in vitro hemolysis test using four biologic matrices (mouse, rat, dog and human whole unclotted blood) to determine the hemolytic potential for each on red blood cells.

[4] = test system: rat whole blood (male), red blood cells; experiment: In vitro hemolysis test, rat blood; details: 15 min at 37° C.; for % Hemolysis: Rat Blood; for interpretation of hemolysis to Red Blood Cells: rat whole unclotted blood, concentrations tested
Experimental: as §1

[5] = test system: beagle dog whole blood (male), red blood cells; experiment: In vitro hemolysis test, dog blood; details: 15 min at 37° C.; for % Hemolysis: Dog Blood; for interpretation of hemolysis to Red Blood Cells: dog whole unclotted blood, concentrations tested
Experimental: as §1

[6] = test system: human (pooled) whole blood, red blood cells; experiment: In vitro hemolysis test, human blood; details: 15 min at 37° C.; for % Hemolysis: Human Blood; for interpretation of hemolysis to Red Blood Cells: human whole unclotted blood, concentrations tested
Experimental: as §1

motor control = experiment: Mouse RotoRod/Acelerorod test; details: mice, 15 minute IV infusion, 10 mg Acetaminophen/mL, 8 mg Gabapentin/mL; 1, 2, 4, 6 h
Experimental: Mouse tail flick test was conducted to evaluate test somatic pain and mouse rotorod/acelorod test evaluated behavioral changes, specifically somnolence or dizziness
In each case a positive control was administered as described below.
Male ICR mice were trained on a RotoRod/Acelerod at a continuous accelerating speed from 4 to 30 rpm/min during a time period of 4 minutes for at least 3 times on day 0. Vehicle or test article at a single dose is administered by intravenous infusion over 15 minutes starting 30 minutes before the test period starts and chlorpromazine (30 mg/kg, PO) was administered by oral gavage 60 minutes before the start of the test period. At 1, 2, 4, and 6 hours after the start of the test the mice are placed on the accelerating rotorod (increasing from 4 to 30 rpm/min during a 4 min period) and the time (seconds) the mouse remained on the rotorod was recorded. One-way ANOVA followed by Dunnett's test is applied for comparison between vehicle control and test article groups. P<0.05 is considered significant.
A baseline was measured before administration of the test agents and at 1, 2, 4 and 6 h post the start of the study. The effect of the compounds was evaluated in the standard RotoRod/Acelerorod test.

rats = experiment: Toxicologic profile in rats (clinical pathology, necropsy, histopathology)
[7] = Koshy et al; cited from earlier work

For “1-(aminomethyl) cyclohexane acetic acid [Gabapentin]”, the “order of stability of GBP in solvents and stabilizers” value [1] was “PVP>Glycine>Lysine>Propylene Glycol>Sorbitol>PEG400>Glycerol>Mannitol>Sodium Oleate>β-cyclodextrin>Deoxychloic Acid>CMC>L-Glutamic Acid”, the “stability of GBP with stabilizer” value ([1]; PVP at 10 mg/mL) was “more stable” and the “Gabapentin PK AUC” value ([2]; 15 min IV infusion) was 37,663 ng · h/mL. For the same compound, the “Gabapentin PK Cmax” value ([2]; 15 min IV infusion) was 20,138 ng/mL, the “PK profile of GBP” value ([2]; in the presence of APAP) was “no change” and the “% Hemolysis” value ([3]; GBP 2 mg/mL) was 0%. The “% Hemolysis” value ([3]; GBP 4 mg/mL) was 0%, the “% Hemolysis” value ([3]; GBP 8 mg/mL) was 0% and the “interpretation of hemolysis to Red Blood Cells” value (“interpretation of hemolysis” below) [3] was “not considered to be hemolytic”. The “% Hemolysis” value ([4]; GBP 2 mg/mL) was 0%, the “% Hemolysis” value ([4]; GBP 4 mg/mL) was 0% and the “% Hemolysis” value ([4]; GBP 8 mg/mL) was 0%. The “interpretation of hemolysis” value [4] was “not considered to be hemolytic”, the “% Hemolysis” value ([5]; GBP 2 mg/mL) was 0% and the “% Hemolysis” value ([5]; GBP 4 mg/mL) was 0%. The “% Hemolysis” value ([5]; GBP 8 mg/mL) was 0%, the “interpretation of hemolysis” value [5] was “not considered to be hemolytic” and the “% Hemolysis” value ([6]; GBP 2 mg/mL) was 0%. For the same compound, the “% Hemolysis” value ([6]; GBP 4 mg/mL) was 2%, the “% Hemolysis” value ([6]; GBP 8 mg/mL) was 0% and the “interpretation of hemolysis” value [6] was “not considered to be hemolytic”. The “decrease in motor control compared to the vehicle control” value (motor control) was “no statistically significant decrease in motor control”, the “Clinical Pathology (Clinical Chemistry, Hematology or Coagulation Parameters)” value (rats; 24 h after 15 minute IV infusion) was “did not alter the Clinical Pathology” and the “histopathology of tissues compared to vehicle control” value (rats; infusion site, lung, liver, kidney) was “no changes in the histopathology”.
`CC(=O)Nc1ccc(O)cc1` [Acetaminophen] showed an AUC ([2]; Acetaminophen PK AUC, 15 min IV infusion) of 7280 ng·h/mL, a Cmax ([2]; Acetaminophen PK Cmax, 15 min IV infusion) of 10100 ng/mL and an AUC ([2]; Bioequivalent Range (80-125%) AUC, 15 min IV infusion, 80-125% of single-drug value) of 5830 to 9110 ng·h/mL. The Cmax ([2]; Bioequivalent Range (80-125%) Cmax, 15 min IV infusion, 80-125% of single-drug value) was 8110 to 12700 ng/mL, the “% Hemolysis” value ([3]; APAP 5 mg/mL) was 4% and the “% Hemolysis” value ([3]; APAP 10 mg/mL) was 4%. For the same compound, the “interpretation of hemolysis” value [3] was “not considered to be hemolytic”, the “% Hemolysis” value ([4]; APAP 5 mg/mL) was 0% and the “% Hemolysis” value ([4]; APAP 10 mg/mL) was 0%. The “interpretation of hemolysis” value [4] was “not considered to be hemolytic”, the “% Hemolysis” value ([5]; APAP 5 mg/mL) was 0% and the “% Hemolysis” value ([5]; APAP 10 mg/mL) was 5%. For the same compound, the “interpretation of hemolysis” value [5] was “not considered to be hemolytic”, the “% Hemolysis” value ([6]; APAP 5 mg/mL) was 0% and the “% Hemolysis” value ([6]; APAP 10 mg/mL) was 0%. The “interpretation of hemolysis” value [6] was “not considered to be hemolytic”, the “decrease in motor control compared to the vehicle control” value (motor control) was “no statistically significant decrease in motor control” and the “pH range of minimum hydrolysis of APAP” value [7] was 5-7.
